EC50 data for 22 compounds are collected here from patent US11098010B2 (priority 2017, dated 2021).

Structures are written as SMILES. Counter-ions that a name gives are not always drawn. Like-named read-outs stand apart in the source and are kept apart here.

The test relates to HBV rcDNA in HepDE19 cells. Kind of test: HepDE19 assay with bDNA quantitation of HBV rcDNA. The class given is cell-based, hepatitis B virus (HBV). Here is the method: HepDE19 Assay with bDNA Quantitation of HBV rcDNA:
HepDE19 cell culture system is a HepG2 (human hepatocarcinoma) derived cell line that supports HBV DNA replication and cccDNA formation in a tetracycline (Tet)-regulated manner and produces HBV rcDNA and a detectable reporter molecule dependent on the production and maintenance of cccDNA (Guo, et al., 2007, J. Virol. 81:12472-12484).
HepDE19 (50,000 cells/well) were plated in 96-well collagen-coated tissue-culture treated microtiter plates in DMEM/F12 medium supplemented with 10% fetal bovine serum, 1% penicillin-streptomycin and 1 μg/mL tetracycline and incubated in a humidified incubator at 37° C. and 5% CO2 overnight. Next day, the cells were switched to fresh medium without tetracycline and incubated for 4 hours at 37° C. and 5% CO2. The cells were treated with fresh Tet-free medium with compounds at concentrations starting at 25 μM and a serial, ½ log, 8-point, titration series in duplicate. The final DMSO concentration in the assay was 0.5%. The plates were incubated for 7 days in a humidified incubator at 37° C. and 5% CO2. Following a 7 day-incubation, the level of rcDNA present in the inhibitor-treated wells was measured using a Quantigene 2.0 bDNA assay kit (Affymetrix, Santa Clara, Calif.) with HBV specific custom probe set and manufacturers instructions. Concurrently, the effect of compounds on cell viability was assessed using replicate plates, plated at a density of 5,000 cells/well and incubated for 4 days, to determine the ATP content as a measure of cell viability using the cell-titer glo reagent (CTG; Promega Corporation, Madison, Wis.) as per manufacturer's instructions. The plates were read using a Victor luminescence plate reader (PerkinElmer Model 1420 Multilabel counter) and the relative luminescence units (RLU) data generated from each well was calculated as % inhibition of the untreated control wells and analyzed using XL-Fit module in Microsoft Excel to determine EC50 and EC90 (bDNA) and CC50 (CTG) values using a 4-parameter curve fitting algorithm.
Representative compounds of the invention were tested for their abilities to inhibit formation of relaxed circular DNA (rcDNA) in a HepDE19 assay, as described elsewhere herein.

Setting [1] is: Hepatitis B virus, HepDE19, 168 h, HepDE19 cells, inhibition of rcDNA formation, 7 day incubation, top concentration 25 μM, read-out: DE-19 bDNA EC50.
Where [2] appears, read: read-out: DE-19 bDNA EC50, HepDE19 cells, inhibition of rcDNA formation, 7 day incubation, top concentration 25 μM.
[3] abbreviates: HepDE19 cells, inhibition of rcDNA formation, 7 day incubation, top concentration 25 μM, read-out: DE-19 bDNA EC50.

For the compound `O=C(Nc1ccc(F)c(Cl)c1)c1cncc2c1CCC2NS(=O)(=O)C1CC1` (racemic) [Compound 268, N-(3-Chloro-4-fluorophenyl)-7-(cyclopropanesulfonamido)-6,7-dihydro-5H-cyclopenta[c]pyridine-4-carboxamide], the EC50 under setting [1] is 8.2 µM.
As to `CNC(=O)NC1COc2c(C(=O)Nc3ccc(F)c(F)c3)cccc21` (single isomer, unassigned) [Compound 7, N-(3,4-difluorophenyl)-3-(3-methylureido)-2,3-dihydrobenzofuran-7-carboxamide], the EC50 under setting [2] was found to be 1.9 µM.
Same read-out and setting: in the case of `CNC(=O)NC1COc2c(C(=O)Nc3ccc(F)c(F)c3)cccc21` (single isomer, unassigned) [Compound 8, N-(3,4-difluorophenyl)-3-(3-methylureido)-2,3-dihydrobenzofuran-7-carboxamide] it was 23 µM; in that of `COC(=O)NC1CSc2c(C(=O)Nc3ccc(F)c(F)c3)cccc21` (single isomer, unassigned) [Compound 30, O-Methyl, N-(7-((3,4-difluorophenyl)carbamoyl)-2,3-dihydrobenzo[b]thiophen-3-yl)carbamate], 1.8 µM; in that of `COC(=O)NC1CSc2c(C(=O)Nc3ccc(F)c(F)c3)cccc21` (single isomer, unassigned) [Compound 31, O-Methyl, N-(7-((3,4-difluorophenyl)carbamoyl)-2,3-dihydrobenzo[b]thiophen-3-yl)carbamate], > 25 µM.
For the compound `O=C(NC1CSc2c(C(=O)Nc3ccc(F)c(F)c3)cccc21)OCc1ccccn1` (single isomer, unassigned) [Compound 33, O-Pyridin-2-ylmethyl, N-(7-((3,4-difluorophenyl)carbamoyl)-2,3-dihydrobenzo[b]thiophen-3-yl) carbamate hydrochloride], the EC50 under setting [1] was determined as 1.1 µM.
Regarding `O=C(NC1CSc2c(C(=O)Nc3ccc(F)c(F)c3)cccc21)OCc1ccccn1` (single isomer, unassigned) [Compound 34, O-Pyridin-2-ylmethyl, N-(7-((3,4-difluorophenyl)carbamoyl)-2,3-dihydrobenzo[b]thiophen-3-yl)carbamate hydrochloride], the EC50 (read-out: DE-19 bDNA EC50, HepDE19 cells, inhibition of rcDNA formation, 7 day incubation, top concentration 25 μM, hydrochloride) is > 25 µM.
In the case of `COC(=O)NC1CSc2c(C(=O)Nc3ccc(F)c(Cl)c3)cccc21` (single isomer, unassigned) [Compound 38, O-Methyl, N-(7-((3-chloro-4-fluorophenyl)carbamoyl)-2,3-dihydrobenzo[b]thiophen-3-yl) carbamate], where the note is “Hepatitis B virus, HepDE19, 168 h, read-out: DE-19 bDNA EC50 (μM), HepDE19 cells, inhibition of rcDNA formation, 7 day incubation, top concentration 25 μM”, the EC50 was > 25 µM.
For the compound `CNC(=O)NC1c2c(F)ccc(C(=O)Nc3ccc(F)c(Cl)c3)c2CC1(C)C` (single isomer, unassigned) [Compound 134, N-(3-Chloro-4-fluorophenyl)-7-fluoro-2,2-dimethyl-1-(3-methylureido)-2,3-dihydro-1H-indene-4-carboxamide], the EC50 under setting [2] was 0.36 µM.
For `CNC(=O)NC1COc2c(C(=O)Nc3ccc(F)c(Cl)c3)ccc(F)c21` (single isomer, unassigned) [Compound 189, N-(3-Chloro-4-fluorophenyl)-4-fluoro-3-(3-methylureido)-2,3-dihydrobenzofuran-7-carboxamide], the EC50 under setting [2] was found to be 0.45 µM.
For the compound `CNC(=O)NC1COc2c(C(=O)Nc3ccc(F)c(Cl)c3)ccc(F)c21` (single isomer, unassigned) [Compound 190, N-(3-Chloro-4-fluorophenyl)-4-fluoro-3-(3-methylureido)-2,3-dihydrobenzofuran-7-carboxamide], the EC50 under setting [2] is > 25 µM.
With `O=C(NC1COc2c(C(=O)Nc3ccc(F)c(Cl)c3)ccc(F)c21)OCc1ccccn1` (single isomer, unassigned) [Compound 191, O-Pyridin-2-ylmethyl, N-(7-((3-chloro-4-fluorophenyl)carbamoyl)-4-fluoro-2,3-dihydrobenzofuran-3-yl)carbamate], the EC50 under setting [2] was 18 µM.
As to `O=C(NC1COc2c(C(=O)Nc3ccc(F)c(Cl)c3)ccc(F)c21)OCc1ccccn1` (single isomer, unassigned) [Compound 192, O-Pyridin-2-ylmethyl, N-(7-((3-chloro-4-fluorophenyl)carbamoyl)-4-fluoro-2,3-dihydrobenzofuran-3-yl)carbamate], the EC50 under setting [2] came to 0.31 µM.
In the case of `CNC(=O)NC1COc2c(C(=O)Nc3ccc(F)c(C)c3)ccc(F)c21` (single isomer, unassigned) [Compound 203, 4-Fluoro-N-(4-fluoro-3-methylphenyl)-3-(3-methylureido)-2,3-dihydrobenzofuran-7-carboxamide], under setting [2], the EC50 was > 25 µM.
On to `CNC(=O)NC1COc2c(C(=O)Nc3ccc(F)c(C)c3)ccc(F)c21` (single isomer, unassigned) [Compound 204, 4-Fluoro-N-(4-fluoro-3-methylphenyl)-3-(3-methylureido)-2,3-dihydrobenzofuran-7-carboxamide], for which, under setting [2], the EC50 worked out at 0.2 µM.
As to `Cc1cc(NC(=O)c2ccc(F)c3c2OCC3NC(=O)OCc2ccccn2)ccc1F` (single isomer, unassigned) [Compound 206, O-Pyridin-2-ylmethyl, N-(4-fluoro-7-((4-fluoro-3-methylphenyl)carbamoyl)-2,3-dihydrobenzofuran-3-yl)carbamate], under setting [1], the EC50 was 0.41 µM.
Take `O=C(Nc1ccc(F)c(Cl)c1)c1ccc(F)c2c1OCC2NS(=O)(=O)C1CC1` (single isomer, unassigned) [Compound 207, N-(3-chloro-4-fluorophenyl)-3-(cyclopropanesulfonamido)-4-fluoro-2,3-dihydrobenzofuran-7-carboxamide]: under setting [3], the EC50 was 14 µM.
Consider `O=C(Nc1ccc(F)c(Cl)c1)c1ccc(F)c2c1OCC2NS(=O)(=O)C1CC1` (single isomer, unassigned) [Compound 208, N-(3-chloro-4-fluorophenyl)-3-(cyclopropanesulfonamido)-4-fluoro-2,3-dihydrobenzofuran-7-carboxamide], for which the EC50 under setting [3] amounted to 0.11 µM.
As to `CNC(=O)NC1c2c(F)ccc(C(=O)Nc3ccc(F)c(Cl)c3)c2CC1(F)F` (single isomer, unassigned) [Compound 211, N-(3-chloro-4-fluorophenyl)-2,2,7-trifluoro-1-(3-methylureido)-2,3-dihydro-1H-indene-4-carboxamide], the EC50 under setting [1] is 6.9 µM.
For the compound `CNC(=O)NC1(C)CCc2c(C(=O)Nc3ccc(F)c(Cl)c3)ccc(F)c21` (single isomer, unassigned) [Compound 215, N-(3-Chloro-4-fluorophenyl)-7-fluoro-1-methyl-1-(3-methylureido)-2,3-dihydro-1H-indene-4-carboxamide], under setting [1], the EC50 is 3.8 µM.
For `CNC(=O)NC1(C)CCc2c(C(=O)Nc3ccc(F)c(Cl)c3)ccc(F)c21` (single isomer, unassigned) [Compound 223, N-(3-chloro-4-fluorophenyl)-7-fluoro-1-methyl-1-(3-methylureido)-2,3-dihydro-1H-indene-4-carboxamide], the EC50 under setting [3] was 4.52 µM.
In the case of `CNC(=O)NC1c2c(F)ccc(C(=O)Nc3ccc(F)c(Cl)c3)c2CC1(C)C` (single isomer, unassigned) [Compound 249, N-(3-Chloro-4-fluorophenyl)-7-fluoro-2,2-dimethyl-1-(3-methylureido)-2,3-dihydro-1H-indene-4-carboxamide], the EC50 under setting [2] is 13 µM.
